Assay results as given in US8512970B2, “Rapid bioluminescence detection assay” (The Secretary of State for Health, priority 2009, dated 2013).
Entries after “also recorded” stand apart in the source; their conditions may differ. Counter-ions that a name gives are not always drawn.

Key:
[1] = biological target: T1, yeast AK (AK from Saccharomyces cerevisiae) (Saccharomyces cerevisiae, UniProt P07170); assay: Distinguishing reporter adenylate kinases from yeast adenylate kinase (FIG. 7B); type: biochemical
T1 construct: purchased Sigma
T1 sequence (P07170 whole entry): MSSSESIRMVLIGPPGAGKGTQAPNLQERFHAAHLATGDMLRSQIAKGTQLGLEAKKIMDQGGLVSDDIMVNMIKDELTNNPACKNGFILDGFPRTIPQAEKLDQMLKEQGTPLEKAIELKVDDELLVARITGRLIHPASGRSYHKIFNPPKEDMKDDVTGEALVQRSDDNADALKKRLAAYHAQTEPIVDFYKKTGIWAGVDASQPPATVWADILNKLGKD

luciferase = luciferase (Photinus pyralis, UniProt P08659); assay: Effect of inhibitor on luciferase; type: biochemical
Sequence of luciferase (P08659 whole entry, species assumed): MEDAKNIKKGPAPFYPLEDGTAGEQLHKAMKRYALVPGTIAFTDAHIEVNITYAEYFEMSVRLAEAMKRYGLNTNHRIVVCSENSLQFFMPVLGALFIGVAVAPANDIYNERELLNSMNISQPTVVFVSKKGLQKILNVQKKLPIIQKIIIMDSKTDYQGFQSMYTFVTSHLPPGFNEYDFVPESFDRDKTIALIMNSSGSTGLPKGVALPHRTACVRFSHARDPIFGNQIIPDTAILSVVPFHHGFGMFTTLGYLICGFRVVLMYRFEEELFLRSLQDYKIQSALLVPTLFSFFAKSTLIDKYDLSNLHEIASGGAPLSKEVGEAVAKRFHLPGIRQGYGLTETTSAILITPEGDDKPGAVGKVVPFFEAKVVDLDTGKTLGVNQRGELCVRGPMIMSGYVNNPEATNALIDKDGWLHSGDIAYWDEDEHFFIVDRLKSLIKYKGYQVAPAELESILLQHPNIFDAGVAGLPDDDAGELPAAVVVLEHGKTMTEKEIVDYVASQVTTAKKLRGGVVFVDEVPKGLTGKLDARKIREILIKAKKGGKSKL

[2] = biological target: adenylate kinase from S. acidocaldarius (Sulfolobus acidocaldarius, UniProt P35028); assay: Inhibition of reporter adenylate kinase by Ap5a, ATP detected with luciferin/luciferase
Sequence of adenylate kinase from S. acidocaldarius (P35028 whole entry): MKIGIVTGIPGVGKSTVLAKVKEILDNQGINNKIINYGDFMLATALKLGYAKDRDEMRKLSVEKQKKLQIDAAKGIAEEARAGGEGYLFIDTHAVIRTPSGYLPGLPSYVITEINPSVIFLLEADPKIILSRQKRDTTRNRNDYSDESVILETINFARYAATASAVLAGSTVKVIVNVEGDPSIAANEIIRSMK
Description: (§1) The reporter adenylate kinases from S. acidocaldarius or T. maritima were purified as described previously. Rabbit myokinase (muscle adenylate kinase) was obtained from Sigma. 100 ng of each enzyme was incubated with the inhibitor at the concentrations shown in reaction buffer (15 mM MgAc, 10 mM tris, 1 mM EDTA pH 7.75) for 5 minutes. ADP was added to a final concentration of 70 μM and the reaction incubated before addition of luciferin and luciferase.

[3] = biological target: T2, adenylate kinase from T. maritima (Thermotoga maritima, UniProt Q9X1I8); assay: as above
T2 sequence (Q9X1I8 1-220): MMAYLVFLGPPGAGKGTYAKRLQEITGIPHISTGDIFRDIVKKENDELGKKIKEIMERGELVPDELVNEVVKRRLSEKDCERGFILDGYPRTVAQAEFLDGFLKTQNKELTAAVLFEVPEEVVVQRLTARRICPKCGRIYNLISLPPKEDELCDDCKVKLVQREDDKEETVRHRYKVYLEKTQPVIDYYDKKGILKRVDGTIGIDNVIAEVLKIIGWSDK
Description: as §1

[4] = biological target: T3, Rabbit myokinase (muscle adenylate kinase) (Oryctolagus cuniculus, UniProt P00569); assay: Inhibition of non-reporter (endogenous) tissue kinase by Ap5a, ATP detected with luciferin/luciferase
T3 sequence (P00569 1-194): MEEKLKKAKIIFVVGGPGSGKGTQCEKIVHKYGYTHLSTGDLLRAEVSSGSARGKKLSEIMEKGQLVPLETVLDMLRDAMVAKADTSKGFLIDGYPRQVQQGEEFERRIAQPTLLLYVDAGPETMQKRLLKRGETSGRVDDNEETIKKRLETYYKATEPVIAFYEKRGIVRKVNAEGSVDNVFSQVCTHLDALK
Description: as §1

Row | Compound | distinguishing bacterial and archaeal reporter adenylate kinases from enzyme of fungal origin (yeast AK) [1] | effect on the activity of the luciferase (luciferase) | IC50 [2] | IC50 [3] | IC50 [4]
1 | Diadenosine hexaphosphate [Ap6A] | do not allow for an assay to distinguish | – | – | – | –
2 | Nc1ncnc2c1ncn2[C@@H]1O[C@H](COP(=O)(O)OP(=O)(O)OP(=O)(O)OP(=O)(O)OP(=O)(O)OC[C@H]2O[C@@H](n3cnc4c(N)ncnc43)[C@H](O)[C@@H]2O)[C@@H](O)[C@H]1O [Ap5A, Diadenosine pentaphosphate pentasodium salt] | can still be used to distinguish; also recorded: discriminates reporter kinase from non-reporter kinase | does not have a detrimental effect | 10.4 µM | 4.3 µM | 0.06 µM
3 | Nc1ncnc2c1ncn2[C@@H]1O[C@H](COP(=O)(O)OP(=O)(O)OP(=O)(O)OP(=O)(O)OC[C@H]2O[C@@H](n3cnc4c(N)ncnc43)[C@H](O)[C@@H]2O)[C@@H](O)[C@H]1O [Ap4A, Diadenosine tetraphosphate] | do not allow for an assay to distinguish | – | – | – | –
